The results in this text go back to patent publication US5086074A, “1-aminomethyl-1,2,3,4-tetrahydronaphthalenes” (Abbott Laboratories, priority 1990, dated 1992).

pKi: −log10 of the molar value. Structures can show the parent of a compound that is named as a salt.

One assay has as its target T1, alpha-1-receptor (Rattus norvegicus, UniProt P15823).
T1 construct: rat liver homogenates; from tissue; host or cells: rat liver homogenate
T1 sequence (P15823 1-515): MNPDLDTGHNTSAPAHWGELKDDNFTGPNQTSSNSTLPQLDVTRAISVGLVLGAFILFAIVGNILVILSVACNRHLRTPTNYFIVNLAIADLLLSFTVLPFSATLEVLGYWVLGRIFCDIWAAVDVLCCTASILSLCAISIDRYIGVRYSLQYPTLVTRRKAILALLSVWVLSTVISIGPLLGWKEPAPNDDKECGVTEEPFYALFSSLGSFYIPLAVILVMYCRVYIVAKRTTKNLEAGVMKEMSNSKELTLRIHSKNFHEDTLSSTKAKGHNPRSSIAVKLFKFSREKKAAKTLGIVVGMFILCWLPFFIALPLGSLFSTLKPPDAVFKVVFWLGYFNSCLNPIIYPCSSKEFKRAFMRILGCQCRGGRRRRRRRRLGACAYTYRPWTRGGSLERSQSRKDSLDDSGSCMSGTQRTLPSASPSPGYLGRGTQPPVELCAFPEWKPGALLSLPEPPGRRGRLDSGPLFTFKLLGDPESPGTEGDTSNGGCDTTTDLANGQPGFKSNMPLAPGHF
Kind of assay: Radioligand binding, alpha-1 adrenoceptor, rat liver homogenates, [3H]-prazosin.
Settings: not given
As for the experimental part: (§1) The compounds were assessed for alpha-adrenergic receptor subtype selectivity by use of radioligand binding techniques as described previously (DeBernardis et.al. J. Med. Chem. 28, 1398 (1985)).
One may read the pKi as the negative decadic logarithm of the Ki, by convention in mol/L. Molecule `COC(=O)[C@H]1[C@H]2C[C@H]3c4[nH]c5ccccc5c4CCN3C[C@H]2CC[C@@H]1O` [Rauwolscine, reference compound] had a negative logarithm of the Ki (pKi) of 6.41.

The same assay, now with this note: rat liver homogenates, [3H]-prazosin; read-out: Ki alpha-1.
`COc1ccc2c(c1)CCCC2CN(C)CCc1cccs1` (stereo not drawn) [Example 5, ((N-Methylamino)methyl-N-(2-(2-thienyl)ethyl)) 6-methoxy tetralin methanesulfonate]: the pKi is 6.24.
The same measure, in the same setting: the value for `COc1ccc2c(c1)CCCC2CN(C)CCc1cccc(F)c1` (stereo not drawn) [Example 6b, 1-((N-methylamino)methyl-N-(2-(m-fluorophenyl)ethyl))-6-methoxy tetralin hydrochloride] was 5.93.
`COc1ccc2c(c1)CCCC2CN(C)CCc1ccsc1` (stereo not drawn) [Example 6d, 1-((N-methylamino)methyl-N-(2-(3-thienyl)ethyl))-6-methoxy tetralin hydrochloride]: the pKi was 6.30.
The same measure, in the same setting: the value for `COc1ccc2c(c1)CCCC2CN(C)CCC1CCCC1` (stereo not drawn) [Example 6f, 1-((N methylamino)methyl -N-(2-(cyclopentyl)ethyl))-6-methoxy tetralin hydrochloride] was 5.67.
Still for that read-out and setting: the figure for `CN(CCc1cccs1)CC1CCCc2cc(O)ccc21` (stereo not drawn) [Example 7, 1-((N-Methylamino)methyl N-(2-(2-thienyl)ethyl)) 6-hydroxy tetralin hydrochloride] is 6.25; for `COc1ccc2c(c1)CCCC2CN(C)CCc1cccn1C` (stereo not drawn) [Example 12, 1-((N-Methylamino)methyl-N-(2-(N-methyl-2-pyrrolyl)ethyl))-6-methoxy tetralin fumarate] it is 5.92.
With `CN(CCc1cccs1)CC1CCCc2ccccc21` (stereo not drawn) [Example 22, 1-((N-Methylamino)methyl-N-(2-(2-thienyl)ethyl)) tetralin hydrochloride], the pKi was 6.16.
On the same count and under the same terms, the value for `CN(CCc1cccs1)CC1CCCc2c1ccc1c2OCO1` (stereo not drawn) [Example 23, 1-((N-Methylamino)methyl-N-(2-(2-thienyl)ethyl))-5,6-methylenedioxy tetralin hydrochloride] was 6.35.
In the case of `COc1cc2c(c(OC)c1)C(CN(C)CCc1cccs1)CCC2` (stereo not drawn) [Example 26, 1-((N Methylamino)methyl-N-(2-(2-thienyl)ethyl))6,8-dimethoxy tetralin hydrochloride], the pKi was 6.76.
The same measure, in the same setting: the value for `COc1ccc2c(c1)C(CN(C)CCc1cccs1)CCC2` (stereo not drawn) [Example 27, 1-((N-Methylamino)methyl-N (2-(2-thienyl)ethyl))7-methoxy tetralin hydrochloride] was 6.28; that for `CN(CCc1cccs1)CC1CCCc2c1ccc1c2OCCO1` (stereo not drawn) [Example 30, 1-((N Methylamino)methyl-N-(2-(2-thienyl)ethyl))-5,6-ethylenedioxy tetralin hydrochloride] was 6.33.
On to `Cc1cc(O)c(O)c2c1C(CN(C)CCc1cccc(F)c1)CCC2` (stereo not drawn) [Example 34, 1-((N-Methylamino)methyl-N (2-(m-fluorophenyl)ethyl))-5,6-dihydroxy-8-methyl tetralin hydrobromide], for which the negative-log Ki (pKi) was 6.48.
On the same count and under the same terms, the figure for `COc1ccc2c(c1)CCC2CN(C)CCc1cccs1` (stereo not drawn) [Example 37, 1-((N-Methylamino)methyl-N-(2-(2-thienyl)ethyl))-5-methoxy indane hydrochloride] is 6.19; for `CCN(CCc1cccs1)CC1CCCc2cc(OC)ccc21` (stereo not drawn) [Example 41, 1-((N Ethylamino)methyl-N (2-(2-thienyl)ethyl))-6methoxy tetralin hydrochloride] it is 6.02; for `CCN(CCc1cccc(F)c1)CC1CCCc2cc(OC)ccc21` (stereo not drawn) [Example 42, 1-((N Ethylamino)methyl-N-(2-(m-fluorophenyl)ethyl))-6-methoxy tetralin hydrochloride] it is 5.98.
Regarding `CCN(CCc1ccco1)CC1CCCc2cc(OC)ccc21` (stereo not drawn) [Example 43, 1-((N-Ethylamino)methyl-N-(2-(2-furyl)ethyl))-6-methoxy tetralin hydrochloride], the pKi was 5.85.
As for `CCN(CCc1ccsc1)CC1CCCc2cc(OC)ccc21` (stereo not drawn) [Example 44, 1-((N-Ethylamino)methyl-N-(2-(3-thienyl)ethyl))-6-methoxy tetralin hydrochloride], the pKi is 6.23.
On the same count and under the same terms, the figure for `CCCN(CCc1cccs1)CC1CCCc2cc(OC)ccc21` (stereo not drawn) [Example 58, 1-((N-Propylamino)methyl)-N-(2-(2-thienyl)ethyl))-6-methoxy tetralin hydrochloride] is 5.74.
In the case of `COc1ccc2c(c1)CCCC2CN(C)CCc1cccc(N)c1` (stereo not drawn) [Example 67, 1-((N-Methylamino)methyl-N-(2-(m-aminophenyl)ethyl))-6-methoxy tetralin dihydrochloride], the pKi was 5.93.
As for `CN(CCc1cccc(N)c1)CC1CCCc2cc(O)ccc21` (stereo not drawn) [Example 68, 1-((N-Methylamino)methyl N-(2-(m-aminophenyl)ethyl))-6-hydroxy tetralin dihydrobromide], the pKi is 5.93.
Same read-out and setting: the value for `CN(CCc1cccc(F)c1)CC1CCCc2ccccc21` (stereo not drawn) [Example 70, 1-((N Methylamino)methyl-N-(2-(mfluorophenyl)ethyl))-tetralin hydrochloride] was 6.28; that for `CN(CCc1cccc(O)c1)CC1CCCc2cc(O)ccc21` (stereo not drawn) [Example 82, 1-((N-Methylamino)methyl-N-(2-(m-hydroxyphenyl)ethyl))-6-hydroxy tetralin hydrochloride] was 6.31.
Consider `COc1ccc2c(c1)CCCC2CN(C)CCc1cccc(O)c1` (stereo not drawn) [Example 83, 1-((N-Methylamino)methyl-N-(2-(m-hydroxyphenyl)ethyl))-6-methoxy tetralin hydrochloride], for which the negative-log Ki (pKi) is 6.02.
Same read-out and setting: the figure for `CN(CCc1cccc(F)c1)CC1CCCc2c1ccc(O)c2O` (stereo not drawn) [Example 85, 1-((N-Methylamino)methyl-N-(2-(m-fluorophenyl)ethyl))-5,6-dihydroxy tetralin hydrochloride] is 6.59; for `COc1ccc2c(c1OC)CCCC2CN(C)CCc1cccs1` (stereo not drawn) [Example 86, 1-((N-Methylamino)methyl-N-(2-(2-thienyl)ethyl))-5,6-dimethoxy tetralin hydrochloride] it is 6.31.
Regarding `CN(CCc1cccs1)CC1CCCc2c1ccc(O)c2O` (stereo not drawn) [Example 87, 1-((N-Methylamino)methyl-N-(2-(2-thienyl)ethyl))-5,6-dihydroxy tetralin hydrochloride], the pKi was 6.35.
Still for that read-out and setting: the value for `CN(CCc1ccccc1)CC1CCCc2ccccc21` (stereo not drawn) [Example 88, 1-((N-Methylamino)methyl-N-(2-phenethyl))-tetralin hydrochloride] was 6.50; that for `CN(CCc1ccccc1)CC1CCCc2cc(N)ccc21` (stereo not drawn) [Example 114, 1-((N-Methylaminomethyl-N-(2-phenylethyl))-6-aminotetralindihydrochloride] was 6.14.
As for `CN(CCc1cccs1)CC1CCCc2c1ccc(O)c2I` (stereo not drawn) [Example 115, 1-((N-Methylamino)methyl-N-(2-(2-thienyl)ethyl))-5-iodo-6-hydroxy tetralin hydrochloride], the pKi was 6.28.
In the case of `COc1cc2c(cc1C)C(CN(C)CCc1ccco1)CCC2` (stereo not drawn) [Example 128, 1-((N-Methylamino)methyl-N-(2-(2-furyl)ethyl))6-methoxy-7-methyl tetralin hydrochloride], the negative logarithm of the Ki (pKi) was 6.07.
Take `COc1cc2c(cc1F)C(CN(C)CCc1ccco1)CCC2` (stereo not drawn) [Example 141, 1-((N-methylamino)methyl-N-(2-(2-furyl)ethyl))-6-methoxy-7-fluoro tetralin methanesulfonate]: the pKi was 6.06.
`c1csc(C2CCN(CC3CCCc4c3ccc3c4OCO3)C2)c1` (stereo not drawn) [Example 144, 5,6-Methylenedioxy-1-(3-(2-thienyl)pyrrolidino-1-methyl) tetralin methanesulfonate]: the pKi is 6.61.
With `CCN(CCc1cccs1)CC1CCCc2c1ccc1c2OCO1` (stereo not drawn) [Example 164, 1-(N Ethylamino)methyl-N-(2-(2-thienyl)ethyl))-5,6-methylenedioxy tetralin hydrochloride], the negative logarithm of the Ki (pKi) was 6.02.
Still for that read-out and setting: the value for `CCN(CCc1cccc(F)c1)CC1CCCc2c1ccc1c2OCO1` (stereo not drawn) [Example 165, 1-((N-Ethylamino)methyl-N-(2-m-fluorophenethyl))-5,6-methylenedioxy tetralin hydrochloride] was 6.34.
`CN(CCc1cccc(F)c1)CC1CCCc2c1ccc1c2OCO1` (stereo not drawn) [Example 166, 1-((N-Methylamino)methyl-N (2-m-fluorophenethyl))-5,6-methylenedioxy tetralin methanesulfonate]: the negative-log Ki (pKi) was 6.22.
The same measure, in the same setting: the figure for `CCN(CCc1cccs1)CC1CCCc2c1ccc1c2OCCO1` (stereo not drawn) [Example 168, 1-((N Ethylamino)methyl-N-(2-(2-thienyl)ethyl))-5,6-ethylenedioxy tetralin hydrochloride] is 6.08; for `Fc1ccccc1C1CCN(CC2CCCc3c2ccc2c3OCO2)C1` (stereo not drawn) [Example 176a, 5,6-Methylenedioxy-1-(3-(o-fluorophenyl)pyrrolidino-1-methyl) tetralin methanesulfonate] it is 7.10.

The subject of the next assay is alpha-2-receptor. Kind of assay: Radioligand binding, alpha-2 adrenoceptor, rat cerebral cortices, [3H]-rauwolscine. To be noted: ratio Ki alpha-1/Ki alpha-2. How it is done:
as §1
Consider “5-Methoxy-1-(3-phenylpyrrolidino-1-methyl) indane hydrochloride [Example 152]”, for which the “alpha-2 - Selectivity Ki alpha-1/Ki alpha-2” value was determined as 11.
